From patent US10981882B1, “Compound for inhibiting IDO, a manufacturing method and a use thereof” (Shanghai JOYU Pharmatech Ltd., priority 2017, dated 2021) come the findings set out here.

Structures are written as SMILES.

The target of assay [1] is IDO protease in HEK293 cell (Homo sapiens (Human), UniProt P14902). Description: Inhibitory activity of IDO protease in HEK293 cell transfected with human IDO gene. In kind it is cell-based. The conditions noted are these: for IC50: HEK293 cells transfected with pcDNA3.1(+)-hIDO, compounds incubated for 5 hr; for inhibiting effect on IDO protease: result in words, tested by the above assay. Here is the method:
2. Determination of the Inhibitory Activity of IDO Protease in HEK293 Cell
HEK293 cells were seeded in a 96-well microplate at a density of 2.5×10^4 cells/well and were maintained in DMEM (containing 10% fetal bovine serum, 50 U/mL penicillin and […] streptomycin) at 37° C. 24 hours later, HEK-293 cells were transfected with pcDNA3.1 (+)-hIDO vector carrying human IDO gene using Lipofectamine 2000. After 24 hr, the tested compounds were added to the cells and incubated for 5 hr. 140 μL of supernatant was transferred to a well in a new 96-well microplate. 10 μL of 30% (w/v) trichloroacetic acid was added to each sample-containing well and reaction was incubated at 65° C. for 15 min. The reaction mixture was centrifuged at 13000×g for 10 min. The supernatant was mixed with p-(dimethylamino)benzaldehydein acetic acid in the same volume. The yellow pigment derived from kynurenine was measured for absorbance (D) value at 480 nm using a microplate reader.
The inhibitory activity of compounds prepared in Example 1-19 against the IDO protease in HEK293 cell was determined with the above test.

The target of a further assay is human IDO1 protease (Homo sapiens (Human), UniProt P14902). Kind of assay: Inhibitory activity against human IDO1 protease (recombinant enzyme, kynurenine absorbance at 480 nm). In kind it is biochemical. The conditions noted are these: recombinant human IDO1, L-Tryptophan substrate, 30 min at 37° C. Here is the method: The inhibitory activity of extracorporal human IDO1 protease was tested through the following method. The inhibition effect of compounds of the present invention against the human IDO1 protease was determined through the method.
human IDO1 protease, sequence (P14902 whole entry): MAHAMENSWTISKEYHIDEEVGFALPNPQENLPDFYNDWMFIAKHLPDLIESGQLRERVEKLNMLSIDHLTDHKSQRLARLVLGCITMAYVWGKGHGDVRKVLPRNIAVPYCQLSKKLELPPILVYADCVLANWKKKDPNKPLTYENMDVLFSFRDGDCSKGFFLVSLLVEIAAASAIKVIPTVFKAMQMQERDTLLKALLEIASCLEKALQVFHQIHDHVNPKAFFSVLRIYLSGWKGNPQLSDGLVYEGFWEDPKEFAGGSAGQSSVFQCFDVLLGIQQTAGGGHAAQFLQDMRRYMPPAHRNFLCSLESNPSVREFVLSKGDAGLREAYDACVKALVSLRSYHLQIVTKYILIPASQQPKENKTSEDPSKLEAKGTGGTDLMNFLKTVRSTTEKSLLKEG
(1) Preparation of Human Recombinant IDO1 Protease
BL21 E. Coli were transformed with a correct sequences PET28a-hIDO1 vector. A single colony was inoculated in Luria-Bertani (LB) medium at 37° C. Bacterial cells were then collected through centrifugation. The cell pellets were sonicated, then centrifuged at 4° C. The supernatant was then collected and purified by Ni chromatography to give pure rhIDO1 protease.
(2) The Test of the Compounds
IDO1 enzymatic assay was carried out in a reaction mixture (500 μL/well) containing 50 mmol/L potassium phosphate buffer, 400 μg/mL catalase, 40 mmol/L ascorbic acid, 20 μmol/mL methylene blue, […] L-Tryptophan and the test compound. After the mixture was incubated for 3˜5 min at 37° C., recombinant human IDO1 was added to. The mixture was incubated for another 30 min at 37° C. and the reaction was stopped by adding 200 μL of 30% (w/v) trichloroacetic acid. After heating in a water bath pot at 65° C. for 15 min and centrifugation at 13800×g for 10 min. 100 μL of supernatant was transferred into a well of a 96-well microplate and mixed with the same volume of 2% (w/v) p-(dimethylamino)benzaldehyde in acetic acid. […]. When the color of the mixture became yellow, the mixture was measured for absorbance (D) value at 480 nm using microplate reader.
The inhibitory activity of compounds of the present invention against the human IDO1 protease was determined with the above test.

IDO protease in HEK293 cell, sequence (P14902 whole entry): as above

One may read the IC50 as the concentration at which inhibition is half-maximal. As for `NS(=O)(=O)NC1CCC(Nc2nonc2/C(=N/O)Nc2ccc(F)c(Br)c2)CC1` (centres unmarked) [Example 17, N-(3-bromo-4-fluorophenyl)-N′-hydroxy-4-((4-(sulfamoylamino)cyclohexyl)amino)-1,2,5-oxadiazole-3-carboximidamide], the IC50 in assay [1] was 10 nM; at human IDO1 protease, 15 nM.
For `NS(=O)(=O)NCCC1CCC(CNc2nonc2C(=NO)Nc2ccc(F)c(Br)c2)CC1` (centres unmarked) [Example 7, N-(3-bromo-4-fluorophenyl)-N′-hydroxy-4-(((4-(2-(sulfamoylamino)ethyl)cyclohexyl)methyl)amino)-1,2,5-oxadiazole-3-carboximidamide], in that order: 21 nM and 74 nM.
For `NS(=O)(=O)NCC1CCC(CCNc2nonc2C(=NO)Nc2ccc(F)c(Br)c2)CC1` (centres unmarked) [Example 6, N-(3-bromo-4-fluorophenyl)-N′-hydroxy-4-((2-(4-((sulfamoylamino)methyl)cyclohexyl)ethyl)amino)-1,2,5-oxadiazole-3-carboximidamide], in that order: 39 nM and 48 nM.
The like results for `NS(=O)(=O)N[C@H]1CC[C@H](Nc2nonc2C(=NO)Nc2ccc(F)c(Br)c2)CC1` [Example 18, trans-N-(3-bromo-4-fluorophenyl)-N′-hydroxy-4-(((1r,4r)-4-(sulfamoylamino)yclohexyl)amino)-1,2,5-oxadiazole-3-carboximidamide] were, in that order, 3 nM and 6 nM.
Turning to `N=C(Nc1ccc(F)c(Br)c1)c1nonc1NCC1CCCC(CCNS(N)(=O)=O)C1` (centres unmarked) [Compound 15], the “inhibiting effect on IDO protease” value in assay [1] is on record as “showed the inhibiting effect”.
With `NS(=O)(=O)NCC1CCC(CNc2nonc2C(=NO)Nc2ccc(F)c(Br)c2)CC1` (centres unmarked) [Example 5, N-(3-bromo-4-fluorophenyl)-N′-hydroxy-4-(((4-((sulfamoylamino)methyl)cyclohexyl)methyl)amino)-1,2,5-oxadiazole-3-carboximidamide], the half-maximal inhibitory concentration (IC50) came to 14 nM in assay [1] and 45 nM on human IDO1 protease.
For `NS(=O)(=O)NC1CCCC(CCNc2nonc2C(=NO)Nc2ccc(F)c(Br)c2)C1` (centres unmarked) [Example 12, N-(3-bromo-4-fluorophenyl)-N′-hydroxy-4-((2-(3-(sulfamoylamino)cyclohexyl)ethyl)amino)-1,2,5-oxadiazole-3-carboximidamide], in that order: 23 nM and 60 nM.
For `NS(=O)(=O)NC1CCCC(CNc2nonc2C(=NO)Nc2ccc(F)c(Br)c2)C1` (centres unmarked) [Example 11, N-(3-bromo-4-fluorophenyl)-N′-hydroxy-4-(((3-(sulfamoylamino)cyclohexyl)methyl)amino)-1,2,5-oxadiazole-3-carboximidamide], in that order: 18 nM and 43 nM.
For `NS(=O)(=O)NC1CCN(Nc2nonc2C(=NO)Nc2ccc(F)c(Br)c2)CC1` [Example 15, N-(3-bromo-4-fluorophenyl)-N′-hydroxy-4-((4-(sulfamoylamino)piperidin-1-yl)amino)-1,2,5-oxadiazole-3-carboximidamide], in that order: 37 nM and 83 nM.
As to `NS(=O)(=O)NCCC1CCCC(CCNc2nonc2C(=NO)Nc2ccc(F)c(Br)c2)C1` (centres unmarked) [Compound 16], in assay [1], the “inhibiting effect on IDO protease” value was “showed the inhibiting effect”.
On to `NS(=O)(=O)N[C@H]1CC[C@H](CNc2nonc2C(=NO)Nc2ccc(F)c(Br)c2)CC1` [Example 3, Trans-N-(3-bromo-4-fluorophenyl)-N′-hydroxy-4-(((4-(sulfamoylamino)cyclohexyl)methyl)amino)-1,2,5-oxadiazole-3-carboximidamide], for which the IC50 in assay [1] was 13 nM; at human IDO1 protease, 38 nM.
The like results for `NS(=O)(=O)NCCC1CCC(CCNc2nonc2C(=NO)Nc2ccc(F)c(Br)c2)CC1` (centres unmarked) [Example 8, N-(3-bromo-4-fluorophenyl)-N′-hydroxy-4-((2-(4-(2-(sulfamoylamino)ethyl)cyclohexyl)ethyl)amino)-1,2,5-oxadiazole-3-carboximidamide] were, in that order, 45 nM and 51 nM.
As to `NS(=O)(=O)NC1CCC(CCNc2nonc2C(=NO)Nc2ccc(F)c(Br)c2)CC1` (centres unmarked) [Example 4, N-(3-bromo-4-fluorophenyl)-N′-hydroxy-4-((2-(4-(sulfamoylamino)cyclohexyl)ethyl)amino)-1,2,5-oxadiazole-3-carboximidamide], the values for the 50% inhibitory concentration (IC50) (in assay [1]; on human IDO1 protease) were 36 nM and 22 nM, respectively.
For `NS(=O)(=O)N[C@H]1CC[C@@H](Nc2nonc2C(=NO)Nc2ccc(F)c(Br)c2)CC1` [Example 19, cis-N-(3-bromo-4-fluorophenyl)-N′-hydroxy-4-(((1s,4s)-4-(sulfamoylamino)cyclohexyl)amino)-1,2,5-oxadiazole-3-carboximidamide], in that order: 5 nM and 12 nM.
In the case of `NS(=O)(=O)NCC1CCC(Nc2nonc2C(=NO)Nc2ccc(F)c(Br)c2)C1` (centres unmarked) [Example 14, N-(3-bromo-4-fluorophenyl)-N′-hydroxy-4-((3-((sulfamoylamino)methyl)cyclopentyl)amino)-1,2,5-oxadiazole-3-carboximidamide], the IC50 in assay [1] worked out at 48 nM; at human IDO1 protease it was 108 nM.
`NS(=O)(=O)NC1CCC(CNc2nonc2C(=NO)Nc2ccc(F)c(Br)c2)C1` (centres unmarked) [Compound 19]: in assay [1], the “inhibiting effect on IDO protease” value was “showed the inhibiting effect”.
With `NS(=O)(=O)NC[C@H]1CC[C@H](Nc2nonc2C(=NO)Nc2ccc(F)c(Br)c2)CC1` [Example 1, trans-N-(3-bromo-4-fluorophenyl)-N′-hydroxy-4-((4-((sulfamoylamino)methyl)cyclohexyl)amino)-1,2,5-oxadiazole-3-carboximidamide], the 50% inhibitory concentration (IC50) in assay [1] worked out at 8 nM; at human IDO1 protease it was 16 nM.
On to `N=C(Nc1ccc(F)c(Br)c1)c1nonc1NCCC1CCCC(CNS(N)(=O)=O)C1` (centres unmarked) [Compound 14], for which the “inhibiting effect on IDO protease” value in assay [1] is listed as “showed the inhibiting effect”.
For `NS(=O)(=O)NCC[C@H]1CC[C@H](Nc2nonc2C(=NO)Nc2ccc(F)c(Br)c2)CC1` [Example 2, trans-N-(3-bromo-4-fluorophenyl)-N′-hydroxy-4-((4-(2-(sulfamoylamino)ethyl)cyclohexyl)amino)-1,2,5-oxadiazole-3-carboximidamide], the IC50 in assay [1] amounted to 36 nM; on human IDO1 protease it was 46 nM.
For `NS(=O)(=O)NCC1CCCC(Nc2nonc2C(=NO)Nc2ccc(F)c(Br)c2)C1` (centres unmarked) [Example 9, N-(3-bromo-4-fluorophenyl)-N′-hydroxy-4-((3-((sulfamoylamino)methyl)cyclohexyl)amino)-1,2,5-oxadiazole-3-carboximidamide], in that order: 27 nM and 64 nM.
On to `N=C(Nc1ccc(F)c(Br)c1)c1nonc1NC1CCC(CCNS(N)(=O)=O)C1` (centres unmarked) [Compound 17], for which the “inhibiting effect on IDO protease” value in assay [1] is listed as “showed the inhibiting effect”.
In the case of `NS(=O)(=O)NCCC1CCCC(Nc2nonc2C(=NO)Nc2ccc(F)c(Br)c2)C1` (centres unmarked) [Example 10, N-(3-bromo-4-fluorophenyl)-N′-hydroxy-4-((3-(2-(sulfamoylamino)ethyl)cyclohexyl)amino)-1,2,5-oxadiazole-3-carboximidamide], the 50% inhibitory concentration (IC50) was found to be 52 nM in assay [1] and 59 nM on human IDO1 protease.
For `NS(=O)(=O)NC1CCC(Nc2nonc2C(=NO)Nc2ccc(F)c(Br)c2)C1` (centres unmarked) [Example 16], in that order: 42 nM and 63 nM.
